# Measured values published in patent US9101640B2, “Use of Danshensu, Notoginsenoside R1 or their combination in preparation of medicaments for preventing and treating diseases caused by microcirculation disorder” (Tasly Pharmaceutical Group Co., Ltd., priority 2009, dated 2015).
# “Also recorded” adds a separate entry of the source.
# Key:
# Format in all cases: in vivo
# [1] = test system: leukocytes emigrated from the mesenteric venules; experiment: Counting of leukocytes emigrated from venules after I/R; conditions: rat mesenteric I/R
# Procedure: (§1) The rats were anesthetized by intraperitoneal injection of pentobarbital sodium (30 mg/kg body weight (BW)). PE venous cannulas (#3) were cannulated into the right jugular of the rats and detained. The abdomen of each rat was incised in a length of 20-30 mm along the midline. The ileum near the ileocecal junctions was gently taken out and unfolded onto the object stage mounted with glass slides. The unfolded mesenteries were continuously dripped with Krebs-Ringer buffering solution at 37° C. The microcirculatory dynamics of the mesenteries was observed under white light (12V, 100 W) using an inverted biomicroscope (Diaphot TMD-2S, Nikon, Tokyo) placed in the thermostat at 37° C. Observation sites were selected under 20× object lens, and a video recording system with a time-displaying function was used to record what had been observed on S-VHS tape and preserved. […] Normal saline was administrated at 20 min before ischemia until the end of the observation by continuously intravenous drip via jugular at a dosage of 5 mg/kg/h. PE cannulas were used to ligate non-circulatory mesenteric arteries and veins, so as to observe the arteries and veins for 10 min, and then the ligation was lifted. Time was adjusted to zero and the microcirculatory dynamics under the same visual field was continuously observed for 60 min.
# (§2) DLA was administrated at 20 min before ischemia until the end of the observation by continuously intravenous drip via jugular at a dosage of 5 mg/kg/h.
# (§3) R1 was administrated at 20 min before ischemia until the end of the observation by continuously intravenous drip via jugular at a dosage of 5 mg/kg/h.
# (§4) The combination of DLA and R1 in a weight ratio of 4:1 was administrated at 20 min before ischemia until the end of the observation by continuously intravenous drip via jugular at a dosage of 5 mg/kg/h.
# (§5) The combination of DLA and R1 in a weight ratio of 1:1 was administrated at 20 min before ischemia until the end of the observation by continuously intravenous drip via jugular at a dosage of 5 mg/kg/h. […]
# (§6) Wherein, 6 rats in each group were taken out, these rats were used for observing the following aspects: the venular diameters; leukocytes rolling, adhesion, and emigration and DHR fluorescence intensities of the venular walls. […]
# (§7) Microcirculatory dynamics was continuously recorded using an inverted biomicroscope […] recording system (CC-090, Flovel, Tokyo) and SIT fluorescent camera (C-2400-08, Hamamatsu Photonics, Hamamatsu).
# The number of the leukocytes emigrated from the mesenteric venules was observed and counted from the replayed images at the following time points: before ischemia, and 1 min, 10 min, 20 min, 30 min, 40 min, 50 min and 60 min after the beginning of the reperfusion.
# [2] = test system: leukocytes adhered to the mesenteric venules; experiment: Counting of leukocytes adhered to venular walls after I/R; conditions: rat mesenteric I/R
# Procedure: as §1, §2, §3, §4, §5, §6, §7
# The leukocytes adhered to the venules which stayed at one site on the venular walls for at least 30 s the adherent leukocytes) was counted from the replayed images at the following time points: before ischemia, and 1 min, 10 min, 20 min, 30 min, 40 min, 50 min and 60 min after the beginning of the reperfusion. […]
# [3] = test system: plasma albumin leakage from the mesenteric venules; experiment: FITC-labeled albumin leakage from venules after I/R; conditions: rat mesenteric I/R; for inhibition of the plasma albumin leakage from the venules after reperfusion: post-administration, 5 mg/kg/h continuous i.v. drip from 20 min after ischemia (DLA: 10 min after I/R); for inhibition of the plasma albumin leakage from the venules after I/R: pre-administration, 5 mg/kg/h continuous i.v. drip from 20 min before ischemia
# Procedure: as §1, §2, §3, §4
# The combination of DLA and R1 in a weight ratio of 1:1 was administrated at 20 min before ischemia until the end of the observation by continuously intravenous drip via jugular at a dosage of 5 mg/kg/h.
# The combination of DLA and R1 in a weight ratio of 1:4 was administrated at 20 min before ischemia until the end of the observation by continuously intravenous drip via jugular at a dosage of 5 mg/kg/h.
# DLA was administrated at 10 min after I/R until the end of the observation by continuously intravenous drip via jugular at a dosage of 5 mg/kg/h. […]
# as §6
# Microcirculatory dynamics was continuously recorded using an inverted biomicroscope […] recording system (CC-090, Flovel, Tokyo) and SIT fluorescent camera (C-2400-08, Hamamatsu Photonics, Hamamatsu). […]
# [4] = test system: leukocytes rolling along the mesenteric venular walls; experiment: Counting of leukocytes rolling along inner walls of venules after I/R; conditions: rat mesenteric I/R
# Procedure: as §1, §2, §3, §4, §5, §6, §7
# The leukocytes roiling along the inner walls of the venules in a length of 200 μm within 10 s was counted from the replayed images at the following time points: before ischemia, and 1 min, 10 min, 20 min, 30 min, 40 min, 50 min and 60 min after the beginning of the reperfusion.
# [5] = post-administration, 5 mg/kg/h continuous i.v. drip from 20 min after ischemia (DLA: 10 min after I/R)
# [6] = pre-administration, 5 mg/kg/h continuous i.v. drip from 20 min before ischemia
# [7] = pre-administration, 5 mg/kg/h continuous i.v. drip from 20 min before ischemia, 5 mg/kg
SMILES,"inhibition of the emigration of leukocytes from the mesenteric venules after I/R [1, 5]","inhibition of the emigration of leukocytes from the mesenteric venules after I/R [1, 6]","inhibition of the increase in the number of leukocytes adhered to the mesenteric venules caused by I/R [2, 5]","inhibition of the increase in the number of leukocytes adhered to the mesenteric venules caused by I/R [2, 6]",inhibition of the plasma albumin leakage from the venules after reperfusion [3],inhibition of the plasma albumin leakage from the venules after I/R [3],"inhibition of leukocytes rolling along the mesenteric venular walls caused by I/R ([4]; post-administration, 5 mg/kg/h continuous i.v. drip from 20 min after ischemia (DLA: 10 min after I/R), 5 mg/kg)","inhibition of leukocytes rolling along the mesenteric venular walls caused by I/R [4, 7]","inhibition of leukocytes rolling along the mesenteric venular walls caused by I/R [4, 5]"
"CC(C)=CCC[C@](C)(O[C@@H]1O[C@H](CO)[C@@H](O)[C@H](O)[C@H]1O)[C@H]1CC[C@]2(C)[C@@H]1[C@H](O)C[C@@H]1[C@@]3(C)CC[C@H](O)C(C)(C)[C@@H]3[C@@H](O[C@@H]3O[C@H](CO)[C@@H](O)[C@H](O)[C@H]3O[C@@H]3OC[C@@H](O)[C@H](O)[C@H]3O)C[C@]12C [R1, Notoginsenoside R1]",had significant inhibitory effects; also recorded: can inhibit,had significant inhibitory effects; also recorded: can inhibit,had significant inhibitory effects; also recorded: can inhibit,had significant inhibitory effects; also recorded: can inhibit,had significant inhibitory effects; also recorded: can inhibit,had significant inhibitory effects; also recorded: can inhibit,had no significant inhibitory effects; also recorded: have no significant inhibitory effects,had no significant inhibitory effects; also recorded: have no significant inhibitory effects,–
"O=C(O)C(O)Cc1ccc(O)c(O)c1 (stereo not shown) [DLA, 3,4-dihydroxyphenyl lactic acid]",had significant inhibitory effects; also recorded: has the same effects as those of the pre-administration,had significant inhibitory effects; also recorded: can inhibit,had significant inhibitory effects; also recorded: has the same effects as those of the pre-administration,had significant inhibitory effects; also recorded: can inhibit,had significant inhibitory effects; also recorded: has the same effects as those of the pre-administration,had significant inhibitory effects; also recorded: can inhibit,–,can apparently suppress; also recorded: can inhibit,has the same effects as those of the pre-administration
